Source: patent publication US20210246115A1 (Bioimics AB, priority 2017, published 2021)
Counter-ions that a name gives are not always drawn.

How the values were obtained:
[1] = test system: Escherichia coli (ATCC25922); test: MIC, broth microdilution (CLSI), Escherichia coli; conditions: Escherichia coli, ATCC25922, read-out: E. coli ATCC 25922 MIC, Table XIII
[2] = test system: E. coli RNase P RNA, M1 RNA; test: Inhibition of bacterial RNase P activity, IC50 determination (cleavage of pATSerUG by M1 RNA); type: biochemical; conditions: NI: No inhibition
[3] = test system: Staphylococcus aureus (ATCC25923); test: MIC, broth microdilution (CLSI), Staphylococcus aureus ATCC25923; conditions: Staphylococcus aureus, ATCC25923, read-out: S. aureus ATCC 25923 MIC

MIC [1]	IC50 [2]	MIC [3]	IC50 ([2]; hydrochloride salt)	SMILES
> 512 mg/L	58 µM	64 mg/L		Cc1cccc(C(CC(=O)N[C@H]2CC[C@H](N)CC2)c2cn(Cc3ccccc3)c3ccccc23)c1.Cl (stereo partly drawn) [Compound 64, N-((1R,4R)-4-aminocyclohexyl)-3-(1-benzyl-1H-indol-3-yl)-3-(m-tolyl)propanamide salt]
> 512 mg/L	980 µM	258 mg/L		Cc1cccc(C(CC(=O)N[C@H]2CC[C@@H](N)CC2)c2cn(Cc3ccccc3)c3ncccc23)c1.Cl (stereo partly shown) [Compound 41, N-((1s,4s)-4-aminocyclohexyl)-3-(1-benzyl-1H-pyrrolo[2,3-b]pyridin-3-yl)-3-(m-tolyl)propanamide hydrochloride salt]
> 512 mg/L	3.2 µM	158 mg/L		Cc1cccc(C(CC(=O)N[C@H]2CC[C@H](N)CC2)c2cn(CC3CCCCC3)c3ccc(-c4ccccc4Cl)cc23)c1.Cl (stereo partly drawn) [Compound 205, N-((1R,4R)-4-aminocyclohexyl)-3-(5-(2-chlorophenyl)-1-(cyclohexylmethyl)-1H-indol-3-yl)-3-(m-tolyl)propanamide hydrochloride salt]
133 mg/L	195 µM	33 mg/L		COc1cccc(C(CC(=O)N[C@H]2CC[C@@H](N)CC2)c2cn(Cc3ccccc3)c3ccccc23)c1.Cl (stereo partly drawn) [Compound 66, N-((1S,4S)-4-aminocyclohexyl)-3-(1-benzyl-1H-indol-3-yl)-3-(3-methoxyphenyl) propanamide hydrochloride salt]
> 512 mg/L	8 µM	2 mg/L		Cc1cccc(C(CC(=O)NC2CCC(N)CC2)c2cn(CC34CC5CC(CC(C5)C3)C4)c3ccccc23)c1.Cl [Compound 223, 3-(1-(((1S,3S)-adamantan-1-yl)methyl)-1H-indol-3-yl)-N-((1s,4s)-4-aminocyclohexyl)-3-(m-tolyl)propanamide hydrochloride salt]
> 512 mg/L	3.4 µM	38 mg/L		Cc1cccc(C(CC(=O)NC2CCC(N)CC2)c2cn(CC3CCCCC3)c3ccc(-c4ccccc4C)cc23)c1.Cl [Compound 221, N-((1S,4S)-4-aminocyclohexyl)-3-(1 - (cyclohexylmethyl)-5-(o-tolyl)-1H-indol-3-yl)-3-(m-tolyl)propanamide hydrochloride salt]
> 512 mg/L	12.7 µM	17 mg/L		CC(C)c1cccc(C(CC(=O)N[C@H]2CC[C@H](N)CC2)c2cn(CC3CCCCC3)c3ccccc23)c1.Cl (stereo partly drawn) [Compound 198, N-((1R,4R)-4-aminocyclohexyl)-3-(1-(cyclohexylmethyl)-1H-indol-3-yl)-3-(3-isopropylphenyl) propanamide hydrochloride salt]
> 512 mg/L	486 µM	256 mg/L		Cl.N[C@H]1CC[C@H](NC(=O)CCc2cn(Cc3ccccc3)c3ccccc23)CC1 [Compound 100, N-((1R,4R)-4-aminocyclohexyl)-3-(1-benzyl-1H-indol-3-yl)propanamide hydrochloride salt]
67 mg/L	12 µM	17 mg/L		COc1cccc(C(CC(=O)NC2CCC(N)CC2)c2cn(CC3CCCCC3)c3ccccc23)c1.Cl [Compound 160, N-((1S,4S)-4-aminocyclohexyl)-3-(1-(cyclohexylmethyl)-1H-indol-3-yl)-3-(3-methoxyphenyl) propanamide hydrochloride salt]
> 512 mg/L	269 µM	258 mg/L		Cc1cccc(C(CC(=O)N[C@H]2CC[C@H](N)CC2)c2cn(Cc3ccccc3)c3ncccc23)c1.Cl (stereo partly drawn) [Compound 71, N-((1R,4R)-4-aminocyclohexyl)-3-(1-benzyl-1H-pyrrolo[2,3-b]pyridin-3-yl)-3-(m-tolyl)propanamide hydrochloride salt]
64 mg/L	34 µM	8 mg/L		Cc1ccc(C(CC(=O)NC2CCC(N)CC2)c2cn(CC3CCCCC3)c3ccccc23)cc1.Cl [Compound 140, N-((1S,4S)-4-aminocyclohexyl)-3-(1-(cyclohexylmethyl)-1H-indol-3-yl)-3-(p-tolyl)propanamide hydrochloride salt]
> 512 mg/L	17 µM	17 mg/L		Cc1cccc(C(CC(=O)NC2CCC(CN)CC2)c2cn(CC3CCCCC3)c3ccccc23)c1.Cl (stereo not shown) [Compound 182, N-((1r,4r)-4-(aminomethyl)cyclohexyl)-3-(1-(cyclohexylmethyl)-1H-indol-3-yl)-3-(m-tolyl)propanamide hydrochloride salt]
> 512 mg/L	41 µM	64 mg/L		Cc1cccc(C(CC(=O)N[C@H]2CC[C@H](N)CC2)c2cn(CC3CCCCC3)c3ccc(-c4ccccc4)cc23)c1.Cl (stereo partly drawn) [Compound 153, N-((1R,4R)-4-aminocyclohexyl)-3-(1-(cyclohexylmethyl)-5-phenyl-1H-indol-3-yl)-3-(m-tolyl)propanamide hydrochloride salt]
> 512 mg/L	316 µM	> 512 mg/L		Cc1cccc(C(CC(=O)NC2CCNCC2)c2cn(CC3CCOCC3)c3ccccc23)c1.Cl (stereo not shown) [Compound 284, N-(piperidin-4-yl)-3-(1-((tetrahydro-2H-pyran-4-yl)methyl)-1H-indol-3-yl)-3-(m-tolyl)propanamide hydrochloride salt]
> 512 mg/L		> 512 mg/L		Cc1cccc(C(CC(=O)N[C@H]2CC[C@H](O)CC2)c2cn(CC3CCCCC3)c3ccccc23)c1 (stereo partly drawn) [Compound 210, 3-(1-(cyclohexylmethyl)-1H-indol-3-yl)-N-((1R,4R)-4-hydroxycyclohexyl)-3-(m-tolyl)propanamide]
> 512 mg/L		10 mg/L		COc1ccccc1-c1ccc2c(c1)c(C(CC(=O)N[C@H]1CC[C@H](N)CC1)c1cccc(C)c1)cn2CC1CCCCC1.Cl (stereo partly shown) [Compound 219]

The next lines start with the compound.

SMILES	MIC [1]	IC50 [2]	MIC [3]	IC50 ([2]; hydrochloride salt)
FC1(F)CCC(Cn2cc(CCCNC3CCNCC3)c3cc(Br)ccc32)CC1 [Compound 295, N-(3-(5-bromo-1-((4,4-difluorocyclohexyl)methyl)-1H-indol-3-yl)propyl)piperidin-4-amine hydrochloride salt]	17 mg/L	50 µM	9 mg/L	
Cl.N[C@H]1CC[C@H](NC(=O)CC(c2cc(Cl)cc(Cl)c2)c2cn(CC3CCCCC3)c3ccccc23)CC1 (stereo partly shown) [Compound 136, N-((1r,4r)-4-aminocyclohexyl)-3-(1-(cyclohexylmethyl)-1H-indol-3-yl)-3-(3,5-dichlorophenyl) propanamide hydrochloride salt]	> 512 mg/L	9 µM	64 mg/L	
Cl.N[C@H]1CC[C@H](NC(=O)CC(c2cccnc2)c2cn(CC3CCCCC3)c3ccccc23)CC1 (stereo partly drawn) [Compound 138, N-((1R,4R)-4-aminocyclohexyl)-3-(1-(cyclohexylmethyl)-1H-indol-3-yl)-3-(pyridin-3-yl)propanamide hydrochloride salt]	128 mg/L	95 µM	64 mg/L	
Cc1cccc(C(CCNC2CCNCC2)c2cn(CC3CCOCC3)c3ccccc23)c1 (stereo not shown) [Compound 292, N-(3-(1-((tetrahydro-2H-pyran-4-yl)methyl)-1H-indol-3-yl)-3-(m-tolyl)propyl)piperidin-4-amine hydrochloride salt]	66 mg/L	130 µM	33 mg/L	
N[C@H]1CC[C@H](NCCCc2cn(CC3CCCCC3)c3ccc(Br)cc23)CC1 [Compound 211, (1R,4R)-N1-(3-(5-bromo-1-(cyclohexylmethyl)-1H-indol-3-yl)propyl)cyclohexane-1,4-diamine hydrochloride salt]	8 mg/L	20 µM	4 mg/L	
Cc1cccc(C(CC(=O)NCCC2CCNCC2)c2cn(CCC3CCCCC3)c3ccccc23)c1.Cl (stereo not shown) [Compound 110, 3-(1-(2-cyclohexylethyl)-1H-indol-3-yl)-N-(2-(piperidin-4-yl)ethyl)-3-(m-tolyl)propanamide hydrochloride salt]	64 mg/L	5.6 µM	4 mg/L	
Cc1cccc(C(CCNC2CCC(N)CC2)c2cn(CC3CCCCC3)c3ccc(Br)cc23)c1 [Compound 169, (1S,4S)-N1-(3-(5-bromo-1-(cyclohexylmethyl)-1H-indol-3-yl)-3-(m-tolyl)propyl)cyclohexane-1,4-diamine hydrochloride salt]	5 mg/L	21 µM	2 mg/L	
Cc1cccc(C(CC(=O)NC2CCC(N)CC2)c2cn(CC3CCCCC3)c3cc(Br)ccc23)c1.Cl [Compound 175, N-((1S,4S)-4-aminocyclohexyl)-3-(6-bromo-1-(cyclohexylmethyl)-1H-indol-3-yl)-3-(m-tolyl)propanamide hydrochloride salt]	> 512 mg/L		2 mg/L	59 µM
Cl.N[C@H]1CC[C@H](NC(=O)CC(c2cn(CC3CCCCC3)c3ccccc23)C2CCCCC2)CC1 (stereo partly drawn) [Compound 162, N-((1R,4R)-4-aminocyclohexyl)-3-cyclohexyl-3-(1-(cyclohexylmethyl)-1H-indol-3-yl)propanamide hydrochloride salt]	32 mg/L	9 µM	4 mg/L	
Cc1cccc(-c2ccc3c(c2)c(CC(=O)NC2CCC(N)CC2)cn3C(=O)C2CCCCC2)c1.Cl [Compound 259, N-((1S,4S)-4-aminocyclohexyl)-2-(1-(cyclohexanecarbonyl)-5-(m-tolyl)-1H-indol-3-yl)acetamide hydrochloride salt]	> 512 mg/L	20 µM	267 mg/L	
FC1(F)CCC(Cn2cc(CCNC3CCNCC3)c3cc(Br)ccc32)CC1 [Compound 290, N-(2-(5-bromo-1-((4,4-difluorocyclohexyl)methyl)-1H-indol-3-yl)ethyl)piperidin-4-amine hydrochloride salt]	17 mg/L	61 µM	17 mg/L	
